Measurements: patent publication US10597392B2, “Tetrahydropyridopyrazines as modulators of GPR6” (Takeda Pharmaceutical Corporation Limited, priority 2014, dated 2020)

These compounds were tested against T1, GPR6 receptor expressed in CHO-K1 cells (Homo sapiens, UniProt P46095) (assay: Inhibition of cAMP Activity of GPR6 In Vitro Assay). Conditions: inhibition of constitutive cAMP activity of GPR6 in CHO-K1 cells, 45 min incubation, HTRF cAMP detection.
T1 construct: expressed in transfected cells
Assay type: cell-based
Method: Inhibition of cAMP Activity of GPR6 In Vitro Assay
This cell based assay measures the ability of compounds to inhibit the constitutive cAMP activity of GPR6 receptor expressed in CHO-K1 cells. CHO cells were stably expressed with GPR6 receptor, whose expression is controlled by a tetracycline inducable element. The cells were cultured in medium containing F12K, 10% FBS, 1% Penn/Strep, 200 ug/mL Hygromycin. GPR6 receptor expression was induced for 20 hrs with 2 µg/ml doxycycline (sigma D9891) in growth media. After addition of doxycycline cells were plated at a density of 450-750 cells per well in 96-well half-volume black tissue culture plates (Costar) and placed in an incubator (37°, 5% CO2) for 20 hours prior to cAMP assays.
Culture media was removed from cells and they were washed with 50 µL/well of Ringer's Buffer (MgCl2 0.047 mg/mL, NaH2PO4 0.18 mg/mL, Na2HPO4 0.1 mg/mL, KCl 0.34 mg/mL, NaHCO3 1.26 mg/mL, D-glucose 1.8 mg/mL, NaCl 7 mg/mL; pH=7.4). Compounds suspended in DMSO were diluted in Ringer's Buffer containing 0.5% fatty acid free BSA plus 300 μM IBMX and incubated on cells for 45 min at 37° and 5% CO2. After incubation cells were incubated for 10 min at room temp with Eu-cAMP tracer solution from a Perkin Elmer Lance HTRF Ultra cAMP assay kit (TRF0263). Then ULight™-anti-cAMP solution from the Lance HTRF kit was added and incubated on a shaker at room temp for 1 hour prior to HTRF detection in a Perkin Elmer Envision plate reader.
IC50 curves were generated with a four-parameter logistic equation using GraphPad Prism 5.03.

T1 sequence (P46095 whole entry): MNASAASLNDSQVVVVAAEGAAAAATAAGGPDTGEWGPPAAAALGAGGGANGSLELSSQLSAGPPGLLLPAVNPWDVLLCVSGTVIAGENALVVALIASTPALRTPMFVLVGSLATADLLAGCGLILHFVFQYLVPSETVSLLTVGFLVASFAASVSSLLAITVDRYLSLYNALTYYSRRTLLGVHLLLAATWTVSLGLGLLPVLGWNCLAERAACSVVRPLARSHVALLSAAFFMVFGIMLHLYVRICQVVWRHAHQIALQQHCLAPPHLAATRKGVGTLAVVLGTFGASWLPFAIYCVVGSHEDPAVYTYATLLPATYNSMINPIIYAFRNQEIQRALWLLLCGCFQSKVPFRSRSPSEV

Row | EC50 | Structure (SMILES)
1 | 59.4 nM | Cc1cc2nc(NC(C)C)c(N3CCN(Cc4ccc(F)cc4F)CC3)nc2cn1 [Example 1, 3-(4-(2,4-difluorobenzyl)piperazin-1-yl)-N-isopropyl-7-methylpyrido[3,4-b]pyrazin-2-amine]
2 | 16.5 nM | Cc1cc2nc(NC(C)C)c(N3CCC(Oc4ccc(F)cc4F)CC3)nc2cn1 [Example 2, 3-(4-(2,4-difluorophenoxy)piperidin-1-yl)-N-isopropyl-7-methylpyrido[3,4-b]pyrazin-2-amine]
3 | 88.2 nM | Cc1cc2nc(N[C@H]3CCOC3)c(N3CCN(Cc4ccc(F)cc4F)CC3)nc2cn1 [Example 3]
4 | 49.6 nM | Cc1cc2nc(N[C@H]3CCOC3)c(N3CCC(Oc4ccc(F)cc4F)CC3)nc2cn1 [Example 4, (S)-3-(4-(2,4-difluorophenoxy)piperidin-1-yl)-7-methyl-N-(tetrahydrofuran-3-yl)pyrido[3,4-b]pyrazin-2-amine]
5 | 30.1 nM | Cc1cc2nc(N[C@@H]3CCOC3)c(N3CCC(Oc4ccc(F)cc4F)CC3)nc2cn1 [Example 5, (R)-3-(4-(2,4-difluorophenoxy)piperidin-1-yl)-7-methyl-N-(tetrahydrofuran-3-yl)pyrido[3,4-b]pyrazin-2-amine]
6 | 18.5 nM | COc1ccc(OC2CCN(c3nc4cnc(C)cc4nc3NC3CC3)CC2)c(F)c1 [Example 8, N-cyclopropyl-3-(4-(2-fluoro-4-methoxyphenoxy)piperidin-1-yl)-7-methylpyrido[3,4-b]pyrazin-2-amine 2,2,2-trifluoroacetate]
7 | 52.3 nM | Cc1cc2nc(N[C@H]3C[C@@H](O)C3)c(N3CCC(Oc4ccc(F)cc4F)CC3)nc2cn1 [Example 9, cis-3-((3-(4-(2,4-difluorophenoxy)piperidin-1-yl)-7-methylpyrido[3,4-b]pyrazin-2-yl)amino)cyclobutanol]
8 | 69.3 nM | Cc1cc2nc(N[C@H]3C[C@@H](O)C3)c(N3CCN(Cc4ccc(F)cc4F)CC3)nc2cn1 [Example 10, cis-3-((3-(4-(2,4-difluorobenzyl)piperazin-1-yl)-7-methylpyrido[3,4-b]pyrazin-2-yl)amino)cyclobutanol]
9 | 61.4 nM | Cc1cc2nc(N[C@H]3C[C@H](F)C3)c(N3CCC(Oc4ccc(F)cc4F)CC3)nc2cn1 [Example 11, trans-3-(4-(2,4-difluorophenoxy)piperidin-1-yl)-N-(3-fluorocyclobutyl)-7-methylpyrido[3,4-b]pyrazin-2-amino]
10 | 49.4 nM | Cc1cc2nc(N[C@H]3C[C@H](F)C3)c(N3CCN(Cc4ccc(F)cc4F)CC3)nc2cn1 [Example 12, trans-3-(4-(2,4-difluorobenzyl)piperazin-1-yl)-N-(3-fluorocyclobutyl)-7-methylpyrido[3,4-b]pyrazin-2-amine]
11 | 48.2 nM | Cc1cc2nc(N[C@H]3C[C@H](O)C3)c(N3CCC(Oc4ccc(F)cc4F)CC3)nc2cn1 [Example 13, trans-3-((3-(4-(2,4-difluorophenoxy)piperidin-1-yl)-7-methylpyrido[3,4-b]pyrazin-2-yl)amino)cyclobutanol]
12 | 75.2 nM | Cc1cc2nc(N[C@H]3C[C@H](O)C3)c(N3CCN(Cc4ccc(F)cc4F)CC3)nc2cn1 [Example 14, trans-3-((3-(4-(2,4-difluorobenzyl)piperazin-1-yl)-7-methylpyrido[3,4-b]pyrazin-2-yl)amino)cyclobutanol]
13 | 21.9 nM | Cc1cc2nc(NC3COC3)c(N3CCN(Cc4ccc(F)cc4F)CC3)nc2cn1 [Example 15, 3-(4-(2,4-difluorobenzyl)piperazin-1-yl)-7-methyl-N-(oxetan-3-yl)pyrido[3,4-b]pyrazin-2-amine]
14 | 39.9 nM | Cc1cc2nc(NC(C)C)c(N3CCC(Oc4ccc(OC(F)F)cc4F)CC3)nc2cn1 [Example 18, 3-(4-(4-(difluoromethoxy)-2-fluorophenoxy)piperidin-1-yl)-N-isopropyl-7-methylpyrido[3,4-b]pyrazin-2-amine]
15 | 62.6 nM | Cc1cc2nc(NC3CC3)c(N3CCC(Oc4ccc(OC(F)F)cc4F)CC3)nc2cn1 [Example 19, N-cyclopropyl-3-(4-(4-(difluoromethoxy)-2-fluorophenoxy)piperidin-1-yl)-7-methylpyrido[3,4-b]pyrazin-2-amine]
16 | 81.4 nM | Cc1cc2nc(N[C@@H]3CCOC3)c(N3CCC(Oc4ccc(OC(F)F)cc4F)CC3)nc2cn1 [Example 20, (R)-3-(4-(4-(difluoromethoxy)-2-fluorophenoxy)piperidin-1-yl)-7-methyl-N-(tetrahydrofuran-3-yl)pyrido[3,4-b]pyrazin-2-amine]
17 | 162 nM | Cc1cc2nc(N[C@H]3CCOC3)c(N3CCC(Oc4ccc(OC(F)F)cc4F)CC3)nc2cn1 [Example 21, (S)-3-(4-(4-(difluoromethoxy)-2-fluorophenoxy)piperidin-1-yl)-7-methyl-N-(tetrahydrofuran-3-yl)pyrido[3,4-b]pyrazin-2-amine]

Row | EC50 | Structure (SMILES)
18 | 37.3 nM | COc1ccc(CN2CCN(c3nc4cnc(C)cc4nc3NC(C)C)CC2)c(F)c1 [Example 22, 3-(4-(2-fluoro-4-methoxybenzyl)piperazin-1-yl)-N-isopropyl-7-methylpyrido[3,4-b]pyrazin-2-amine]
19 | 158 nM | COc1ccc(CN2CCN(c3nc4cnc(C)cc4nc3NC3CC3)CC2)c(F)c1 [Example 23, N-cyclopropyl-3-(4-(2-fluoro-4-methoxybenzyl)piperazin-1-yl)-7-methylpyrido[3,4-b]pyrazin-2-amine]
20 | 311 nM | COc1ccc(CN2CCN(c3nc4cnc(C)cc4nc3N[C@@H]3CCOC3)CC2)c(F)c1 [Example 24, (R)-3-(4-(2-fluoro-4-methoxybenzyl)piperazin-1-yl)-7-methyl-N-(tetrahydrofuran-3-yl)pyrido[3,4-b]pyrazin-2-amine]
21 | 278 nM | COc1ccc(CN2CCN(c3nc4cnc(C)cc4nc3N[C@H]3CCOC3)CC2)c(F)c1 [Example 25, (S)-3-(4-(2-fluoro-4-methoxybenzyl)piperazin-1-yl)-7-methyl-N-(tetrahydrofuran-3-yl)pyrido[3,4-b]pyrazin-2-amine]
22 | 466 nM | Cc1cc2nc(NC(C)C)c(N3CCN(Cc4ccc(OC(F)F)cc4F)CC3)nc2cn1 [Example 26, 3-(4-(4-(difluoromethoxy)-2-fluorobenzyl)piperazin-1-yl)-N-isopropyl-7-methylpyrido[3,4-b]pyrazin-2-amine]
23 | 446 nM | Cc1cc2nc(NC3CC3)c(N3CCN(Cc4ccc(OC(F)F)cc4F)CC3)nc2cn1 [Example 27, N-cyclopropyl-3-(4-(4-(difluoromethoxy)-2-fluorobenzyl)piperazin-1-yl)-7-methylpyrido[3,4-b]pyrazin-2-amine]
24 | > 1000 nM | Cc1cc2nc(N[C@@H]3CCOC3)c(N3CCN(Cc4ccc(OC(F)F)cc4F)CC3)nc2cn1 [Example 28, (R)-3-(4-(4-(difluoromethoxy)-2-fluorobenzyl)piperazin-1-yl)-7-methyl-N-(tetrahydrofuran-3-yl)pyrido[3,4-b]pyrazin-2-amine]
25 | > 1000 nM | Cc1cc2nc(N[C@H]3CCOC3)c(N3CCN(Cc4ccc(OC(F)F)cc4F)CC3)nc2cn1 [Example 29, (S)-3-(4-(4-(difluoromethoxy)-2-fluorobenzyl)piperazin-1-yl)-7-methyl-N-(tetrahydrofuran-3-yl)pyrido[3,4-b]pyrazin-2-amine]
26 | 80.1 nM | Cc1cc2nc(N3CCN(Cc4ccc(F)cc4F)CC3)c(NC(C)C)nc2cn1 [Example 30, 2-(4-(2,4-difluorobenzyl)piperazin-1-yl)-N-isopropyl-7-methylpyrido[3,4-b]pyrazin-3-amine 2,2,2-trifluoroacetate]
27 | 188 nM | Cc1cc2nc(N3CCN(Cc4ccc(F)cc4F)CC3)c(NC3CC3)nc2cn1 [Example 31, N-cyclopropyl-2-(4-(2,4-difluorobenzyl)piperazin-1-yl)-7-methylpyrido[3,4-b]pyrazin-3-amine 2,2,2-trifluoroacetate]
28 | 326 nM | Cc1cc2nc(N3CCN(Cc4ccc(F)cc4F)CC3)c(N[C@H]3CCOC3)nc2cn1 [Example 32, (S)-2-(4-(2,4-difluorobenzyl)piperazin-1-yl)-7-methyl-N-(tetrahydrofuran-3-yl)pyrido[3,4-b]pyrazin-3-amine]
29 | 102 nM | Cc1cc2nc(N3CCN(Cc4ccc(F)cc4F)CC3)c(N[C@@H]3CCOC3)nc2cn1 [Example 33]
30 | 94.9 nM | Cc1cc2nc(N3CCC(Oc4ccc(F)cc4F)CC3)c(NC3CC3)nc2cn1 [Example 34, N-cyclopropyl-2-(4-(2,4-difluorophenoxy)piperidin-1-yl)-7-methylpyrido[3,4-b]pyrazin-3-amine]
31 | 66.4 nM | Cc1cc2nc(N3CCC(Oc4ccc(F)cc4F)CC3)c(NC(C)C)nc2cn1 [Example 35, 2-(4-(2,4-difluorophenoxy)piperidin-1-yl)-N-isopropyl-7-methylpyrido[3,4-b]pyrazin-3-amine]
32 | 76.3 nM | Cc1cc2nc(N3CCC(Oc4ccc(F)cc4F)CC3)c(N[C@@H]3CCOC3)nc2cn1 [Example 36]
33 | 128 nM | Cc1cc2nc(N3CCC(Oc4ccc(F)cc4F)CC3)c(N[C@H]3CCOC3)nc2cn1 [Example 37, (S)-2-(4-(2,4-difluorophenoxy)piperidin-1-yl)-7-methyl-N-(tetrahydrofuran-3-yl)pyrido[3,4-b]pyrazin-3-amine]
